Reference: ChEMBL document CHEMBL1144966, “Both 5-arylidene-2-thioxodihydropyrimidine-4,6(1H,5H)-diones and 3-thioxo-2,3-dihydro-1H-imidazo[1,5-a]indol-1-ones are light-dependent tumor necrosis factor-alpha antagonists” (Bioorg Med Chem Lett, 2003)

Columns and labels:
[1] = molecular target: T1, Tumor necrosis factor receptor superfamily member 1A (Homo sapiens, UniProt P19438); experiment: Inhibition of TNF-alpha binding to TNFRc1
T1 sequence (P19438 whole entry): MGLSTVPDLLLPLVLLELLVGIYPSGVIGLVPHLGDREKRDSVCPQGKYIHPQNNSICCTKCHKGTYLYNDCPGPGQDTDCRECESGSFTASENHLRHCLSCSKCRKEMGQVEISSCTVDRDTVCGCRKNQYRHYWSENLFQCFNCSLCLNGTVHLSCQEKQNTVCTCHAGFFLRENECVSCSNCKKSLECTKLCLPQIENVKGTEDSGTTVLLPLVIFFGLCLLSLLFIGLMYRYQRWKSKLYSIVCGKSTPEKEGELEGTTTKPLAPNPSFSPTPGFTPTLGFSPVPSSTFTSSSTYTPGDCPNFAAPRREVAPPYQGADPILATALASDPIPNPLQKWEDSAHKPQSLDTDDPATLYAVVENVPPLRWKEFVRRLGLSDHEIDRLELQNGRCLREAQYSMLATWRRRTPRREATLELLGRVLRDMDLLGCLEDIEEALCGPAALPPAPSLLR

[2] = molecular target: T2, Tumor necrosis factor receptor superfamily member 1A (Homo sapiens) (UniProt P19438); experiment: Compound was tested for inhibition of TNF-alpha binding to TNFRc1 at a concentration of 10 uM
T2 sequence (whole entry): T1 sequence (P19438 whole entry)

CCN1C(=O)c2cc3c(OC)cc(OCc4ccccn4)cc3n2C1=S
IC50 [1]: 310 nM

O=C1C(=Cc2c[nH]c3ccccc23)C(=O)N(c2ccccc2)C(=S)N1c1ccccc1
inhibition [2]: 9%

C=CCN1C(=O)c2cc3c(OC)cc(OC)cc3n2C1=S
IC50 [1]: 280 nM

CCN1C(=O)C(=Cc2sccc2C)C(=O)N(CC)C1=S
IC50 [1]: 14100 nM

CCN1C(=O)C(=Cc2ccc(-c3cc(C(F)(F)F)nn3C)s2)C(=O)N(CC)C1=S
inhibition [2]: 33%

CCN1C(=O)/C(=C/c2c[nH]c3ccccc23)SC1=S
inhibition [2]: 40%

C=CCN1C(=O)c2c(C)c3c(OC)cc(OC)cc3n2/C1=N/C#N
inhibition [2]: 19%

C=CCN1C(=O)c2c(C)c3c(OC)cc(OC)cc3n2C1=S
IC50 [1]: 1100 nM

CN1C(=O)C(=Cc2c[nH]c3ccccc23)C(=O)N(C)C1=S
IC50 [1]: 13000 nM

CCN1C(=O)C(=Cc2c[nH]c3c(C)cccc23)C(=O)N(CC)C1=S
IC50 [1]: 600 nM

COc1cc(OC)c2c(C)c3n(c2c1)C(=O)CN(Cc1ccccc1)C3=O
inhibition [2]: 0%

C=CCN1C(=O)n2c(cc3c(OC)cc(OC)cc32)C1=S
IC50 [1]: 610 nM

CCN1C(=O)C(=Cc2cn(C(C)=O)c3ccccc23)C(=O)N(CC)C1=S
inhibition [2]: 15%

CCN1C(=O)/C(=C/c2ccc(-c3ccsc3C(=O)OC)o2)SC1=S
IC50 [1]: 300 nM

C=CCN1C(=O)c2cc3cc(OC)c(OC)cc3n2C1=S
inhibition [2]: 53%

CCN1C(=O)c2cc3c(OC)cc(OCC(=O)O)cc3n2C1=S
inhibition [2]: 42%

CCN1C(=O)C(=Cc2c[nH]c3ccc(OCc4ccccc4)cc23)C(=O)N(CC)C1=S
IC50 [1]: 400 nM

C=CCN1C(=O)c2cc3cc(Cl)ccc3n2C1=S
inhibition [2]: 17%

C=CCN1C(=O)c2cc3c(OC)c(OC)c(OC)cc3n2C1=S
IC50 [1]: 780 nM

COc1cc(OC)c2cc3n(c2c1)C(=S)N(CCc1ccccc1)C3=O
IC50 [1]: 1900 nM

CCN1C(=O)C(=Cc2ccc(Br)s2)C(=O)N(CC)C1=S
IC50 [1]: 4500 nM

C=CCN1C(=O)c2cc3ccc(OC)cc3n2C1=S
IC50 [1]: 1700 nM

CCN1C(=O)C(=Cc2ccc(C)s2)C(=O)N(CC)C1=S
IC50 [1]: 3400 nM

O=C1C(=Cc2ccc(-c3ccccc3C(F)(F)F)o2)C(=O)N(c2ccccc2)C(=S)N1c1ccccc1
IC50 [1]: 11000 nM

CCN1C(=O)C(=Cc2ccc(-c3ccccc3C(F)(F)F)o2)C(=O)N(CC)C1=S
IC50 [1]: 2000 nM

CCN1C(=O)/C(=C/c2ccc(-c3cc(C(F)(F)F)nn3C)s2)SC1=S
IC50 [1]: 140 nM

CCN1C(=O)c2cc3c(OC)cc(OC)cc3n2C1=S
IC50 [1]: 1000 nM

CCN1C(=O)/C(=C/c2ccc(-c3ccccc3C(F)(F)F)o2)SC1=S
IC50 [1]: 320 nM

CCN1C(=O)C(=Cc2cnc3ccccc3c2)C(=O)N(CC)C1=S
inhibition [2]: 0%

CCN1C(=O)C(=Cc2cccnc2)C(=O)N(CC)C1=S
inhibition [2]: 0%

CCN1C(=O)C(=Cc2ccncc2)C(=O)N(CC)C1=S
inhibition [2]: 0%

Cc1ccccc1N1C(=O)C(=Cc2c[nH]c3ccccc23)C(=O)N(c2ccccc2C)C1=S
IC50 [1]: 790 nM

C=CCN1C(=O)c2c(C)c3c(OC)cc(OC)cc3n2C1=O
inhibition [2]: 0%

CCN1C(=O)c2cc3ccccc3n2C1=S
inhibition [2]: 27%

COc1cc(OC)c2cc3n(c2c1)C(=S)N(CCCN1CCOCC1)C3=O
IC50 [1]: 670 nM

C=CCN1C(=O)c2cc3cc(OCc4ccccc4)ccc3n2C1=S
inhibition [2]: 46%

CCN1C(=O)C(=Cc2ccc3ccccc3n2)C(=O)N(CC)C1=S
inhibition [2]: 0%

C=CCN1C(=S)c2c(C)c3c(OC)cc(OC)cc3n2C1=S
IC50 [1]: 210 nM

CCN1C(=O)C(=Cc2cc(Br)cs2)C(=O)N(CC)C1=S
inhibition [2]: 2%

C=CCN1C(=O)c2cc3c(OC)cc(OC)cc3n2C1=O
inhibition [2]: 0%

CCN1C(=O)C(=Cc2c[nH]c3ccccc23)C(=O)N(CC)C1=S
IC50 [1]: 1000 nM

CCN1C(=O)C(=Cc2c[nH]c3ccc([N+](=O)[O-])cc23)C(=O)N(CC)C1=S
IC50 [1]: 5500 nM

CCN1C(=O)c2cc3c(OC)cc(OCC(=O)OC(C)(C)C)cc3n2C1=S
IC50 [1]: 390 nM

CCN1C(=O)c2cc3c(OC)cc(OCOC)cc3n2C1=S
IC50 [1]: 280 nM

CCN1C(=O)C(=Cc2cc([N+](=O)[O-])cs2)C(=O)N(CC)C1=S
inhibition [2]: 0%

CCN1C(=O)C(=Cc2cn(C)c3ccccc23)C(=O)N(CC)C1=S
IC50 [1]: 130 nM

CCN1C(=O)C(=Cc2ccc(-c3ccsc3C(=O)OC)o2)C(=O)N(CC)C1=S
IC50 [1]: 2800 nM

C=CCN1C(=O)n2c(c(C)c3c(OC)cc(OC)cc32)C1=S
IC50 [1]: 210 nM

CCN1C(=O)C(=Cc2cc3ccccc3[nH]2)C(=O)N(CC)C1=S
IC50 [1]: 10200 nM

CCN1C(=O)C2Cc3c(OC)cc(OC)cc3N2C1=S (centres undefined)
inhibition [2]: 0%

Cc1ccccc1N1C(=O)/C(=C/c2c[nH]c3ccccc23)C(=O)NC1=S
IC50 [1]: 1800 nM

COC(=O)c1sccc1-c1ccc(C=C2C(=O)N(c3ccccc3)C(=S)N(c3ccccc3)C2=O)o1
IC50 [1]: 40000 nM

C=CCN1C(=O)c2cc3c(OC)cccc3n2C1=S
IC50 [1]: 2100 nM

CCN1C(=O)C(=Cc2ccccn2)C(=O)N(CC)C1=S
inhibition [2]: 0%
